In patent publication US11058117B2, “Benzoxaborole compounds” (BASF SE, priority 2017, dated 2021):
Where two headings read alike, the source gives them in different places.

Assays:
Amaranthus retroflexus [1] = test: greenhouse post-emergence herbicidal test; format: in vivo; conditions: scale 0 to 100
Protocol: (§1) The culture containers used were plastic flowerpots containing loamy sand with approximately 3.0% of humus as the substrate. The seeds of the test plants were sown separately for each species.
(§2) For this purpose, the test plants were either sown directly and grown in the same containers, or they were first grown separately as seedlings and transplanted into the test containers a few days prior to treatment.
(§3) Depending on the species, the plants were kept at 10-25° C. or 20-35° C., respectively.
(§4) The test period extended over 2 to 4 weeks. During this time, the plants were tended, and their response to the individual treatments was evaluated.
(§5) Evaluation was carried out using a scale from 0 to 100. 100 means no emergence of the plants, or complete destruction of at least the aerial moieties, and 0 means no damage, or normal course of growth. A moderate herbicidal activity is given at values of at least 60, a good herbicidal activity is given at values of at least 70, and a very good herbicidal activity is given at values of at least 85.

Setaria viridis = test: greenhouse post-emergence herbicidal test; format: in vivo; conditions: scale 0 to 100
Protocol: as §1, §2, §3, §4, §5

Echinocloa crus-galli = conditions: post-emergence, application rate 2 kg/ha; scale 0 to 100
Protocol: as §1, §2, §3, §4, §5

Setaria faberi = conditions: pre-emergence, application rate 2 kg/ha; scale 0 to 100
From the text: as §1
(§6) The containers were irrigated gently to promote germination and growth and subsequently covered with transparent plastic hoods until the plants had rooted. This cover caused uniform germination of the test plants, unless this had been impaired by the active ingredients.
as §3, §4, §5

Abutilon theophrasti [2] = test: greenhouse post-emergence herbicidal test; format: in vivo; conditions: scale 0 to 100
Protocol: as §1, §2, §3, §4, §5

Avena fatua = test: greenhouse post-emergence herbicidal test; format: in vivo; conditions: application rate 2 kg/ha, scale 0 to 100
Protocol: as §1, §2, §3, §4, §5

Sesbania exaltata = conditions: post-emergence, application rate 0.25 kg/ha; scale 0 to 100
Protocol: as §1, §2, §3, §4, §5

Polygonum convolvulus = conditions: post-emergence, application rate 0.25 kg/ha; scale 0 to 100
Protocol: as §1, §2, §3, §4, §5

Alopecurus myosuroides = conditions: post-emergence, scale 0 to 100
Protocol: as §1, §2, §3, §4, §5

Amaranthus retroflexus [3] = conditions: pre-emergence, application rate 2 kg/ha; scale 0 to 100
From the text: as §1, §6, §3, §4, §5

Abutilon theophrasti [4] = conditions: pre-emergence, application rate 2 kg/ha; scale 0 to 100
From the text: as §1, §6, §3, §4, §5

SMILES: COC(=O)C1Cc2c(ccc3c2B(O)OC3)O1 (stereo not drawn) [Compound 17]
- herbicidal activity against Amaranthus retroflexus (Amaranthus retroflexus [1]; application rate 2 kg/ha): 100%

SMILES: COC(=O)C1Cc2c(Cl)cc3c(c2O1)B(O)OC3 (single isomer, unassigned) [Compound 8]
- herbicidal activity against Amaranthus retroflexus (Amaranthus retroflexus [1]; application rate 2 kg/ha): 100%
- herbicidal activity against Setaria viridis (Setaria viridis; application rate 2 kg/ha): 100%
- herbicidal activity against Echinocloa crus-galli (Echinocloa crus-galli): 100%
- herbicidal activity against Setaria faberi (Setaria faberi): 80%

SMILES: CCOC(=O)C1COc2ccc3c(c2O1)B(O)OC3 (stereo not drawn) [Compound 15]
- herbicidal activity against Amaranthus retroflexus (Amaranthus retroflexus [1]; application rate 2 kg/ha): 90%
- herbicidal activity against Abutilon theophrasti (Abutilon theophrasti [2]; application rate 2 kg/ha): 90%

SMILES: COC(=O)C1CCc2ccc3c(c2C1)B(O)OC3 (stereo not drawn) [Compound 20]
- herbicidal activity against Amaranthus retroflexus (Amaranthus retroflexus [1]; application rate 1 kg/ha): 100%
- herbicidal activity against Setaria viridis (Setaria viridis; application rate 1 kg/ha): 100%
- herbicidal activity against Abutilon theophrasti (Abutilon theophrasti [2]; application rate 1 kg/ha): 100%

SMILES: COC(=O)C1Cc2c(Cl)cc3c(c2O1)B(O)OC3 (single isomer, unassigned) [Compound 7]
- herbicidal activity against Avena fatua (Avena fatua): 100%
- herbicidal activity against Amaranthus retroflexus (Amaranthus retroflexus [1]; application rate 2 kg/ha): 100%
- herbicidal activity against Abutilon theophrasti (Abutilon theophrasti [2]; application rate 2 kg/ha): 100%

SMILES: O=C(O)C1Oc2ccc3c(c2O1)B(O)OC3 (stereo not drawn) [Compound 2, 1-hydroxy-3H-[1,3]dioxolo[4,5-g][2,1]benzoxaborole-7-carboxylic acid]
- herbicidal activity against Amaranthus retroflexus (Amaranthus retroflexus [1]; application rate 2 kg/ha): 100%
- herbicidal activity against Setaria viridis (Setaria viridis; application rate 2 kg/ha): 80%
- herbicidal activity against Abutilon theophrasti (Abutilon theophrasti [2]; application rate 2 kg/ha): 90%

SMILES: COC(=O)C1Cc2ccc3c(c2C1)B(O)OC3 (stereo not drawn) [Compound 14]
- herbicidal activity against Amaranthus retroflexus (Amaranthus retroflexus [1]; application rate 0.25 kg/ha): 100%
- herbicidal activity against Abutilon theophrasti (Abutilon theophrasti [2]; application rate 0.25 kg/ha): 100%
- herbicidal activity against Sesbania exaltata (Sesbania exaltata): 100%

SMILES: COC(=O)C1Oc2ccc3c(c2O1)B(O)OC3 (stereo not drawn) [Compound 4]
- herbicidal activity against Amaranthus retroflexus (Amaranthus retroflexus [1]; application rate 2 kg/ha): 100%
- herbicidal activity against Abutilon theophrasti (Abutilon theophrasti [2]; application rate 2 kg/ha): 100%

SMILES: O=C(O)C1Cc2c(F)cc3c(c2O1)B(O)OC3 (stereo not drawn) [Compound 13]
- herbicidal activity against Amaranthus retroflexus (Amaranthus retroflexus [1]; application rate 0.25 kg/ha): 100%
- herbicidal activity against Polygonum convolvulus (Polygonum convolvulus): 85%
- herbicidal activity against Sesbania exaltata (Sesbania exaltata): 100%

SMILES: O=C(O)C1CCc2ccc3c(c2C1)B(O)OC3 (stereo not drawn) [Compound 21]
- herbicidal activity against Amaranthus retroflexus (Amaranthus retroflexus [1]; application rate 1 kg/ha): 100%
- herbicidal activity against Setaria viridis (Setaria viridis; application rate 1 kg/ha): 80%
- herbicidal activity against Alopecurus myosuroides (Alopecurus myosuroides; application rate 1 kg/ha): 80%

SMILES: COC(=O)C1Cc2c(C(F)(F)F)cc3c(c2C1)B(O)OC3 (stereo not drawn) [Compound 19]
- herbicidal activity against Amaranthus retroflexus (Amaranthus retroflexus [1]; application rate 1 kg/ha): 100%
- herbicidal activity against Setaria viridis (Setaria viridis; application rate 1 kg/ha): 90%
- herbicidal activity against Abutilon theophrasti (Abutilon theophrasti [2]; application rate 1 kg/ha): 100%

SMILES: O=C(O)C1Cc2c(ccc3c2B(O)OC3)O1 (stereo not drawn) [Compound 18]
- herbicidal activity against Amaranthus retroflexus (Amaranthus retroflexus [1]; application rate 1 kg/ha): 100%
- herbicidal activity against Setaria viridis (Setaria viridis; application rate 1 kg/ha): 90%

SMILES: O=C(O)C1Cc2ccc3c(c2O1)B(O)OC3 (stereo not drawn) [Compound 6]
- herbicidal activity against Amaranthus retroflexus (Amaranthus retroflexus [1]; application rate 2 kg/ha): 100%
- herbicidal activity against Abutilon theophrasti (Abutilon theophrasti [2]; application rate 2 kg/ha): 100%
- herbicidal activity against Alopecurus myosuroides (Alopecurus myosuroides; application rate 2 kg/ha): 98%
- herbicidal activity against Amaranthus retroflexus (Amaranthus retroflexus [3]): 80%

SMILES: COC(=O)C1Cc2c(c(Cl)cc3c2B(O)OC3C)O1 (stereo not drawn) [Compound 9, methyl-5-chloro-1-hydroxy-3-methyl-7,8-dihydro-3H-furo[2,3-g][2,1]benzoxaborole-7-carboxylate]
- herbicidal activity against Avena fatua (Avena fatua): 98%
- herbicidal activity against Amaranthus retroflexus (Amaranthus retroflexus [1]; application rate 2 kg/ha): 100%
- herbicidal activity against Abutilon theophrasti (Abutilon theophrasti [2]; application rate 2 kg/ha): 100%

SMILES: CCOC(=O)C1COc2c(ccc3c2B(O)OC3)O1 (stereo not drawn) [Compound 16]
- herbicidal activity against Amaranthus retroflexus (Amaranthus retroflexus [1]; application rate 2 kg/ha): 100%

SMILES: O=C(O)C1Cc2c(C(F)(F)F)cc3c(c2C1)B(O)OC3 (stereo not drawn) [Compound 22]
- herbicidal activity against Amaranthus retroflexus (Amaranthus retroflexus [1]; application rate 1 kg/ha): 100%
- herbicidal activity against Abutilon theophrasti (Abutilon theophrasti [2]; application rate 1 kg/ha): 100%
- herbicidal activity against Alopecurus myosuroides (Alopecurus myosuroides; application rate 1 kg/ha): 95%

SMILES: COC(=O)C1Cc2c(F)cc3c(c2O1)B(O)OC3 (stereo not drawn) [Compound 12]
- herbicidal activity against Amaranthus retroflexus (Amaranthus retroflexus [1]; application rate 0.25 kg/ha): 100%
- herbicidal activity against Polygonum convolvulus (Polygonum convolvulus): 95%
- herbicidal activity against Sesbania exaltata (Sesbania exaltata): 100%

SMILES: COC(=O)C1Cc2ccc3c(c2O1)B(O)OC3 (stereo not drawn) [Compound 5]
- herbicidal activity against Amaranthus retroflexus (Amaranthus retroflexus [1]; application rate 2 kg/ha): 100%
- herbicidal activity against Setaria viridis (Setaria viridis; application rate 2 kg/ha): 100%
- herbicidal activity against Echinocloa crus-galli (Echinocloa crus-galli): 100%
- herbicidal activity against Setaria faberi (Setaria faberi): 85%
- herbicidal activity against Amaranthus retroflexus (Amaranthus retroflexus [3]): 95%
- herbicidal activity against Abutilon theophrasti (Abutilon theophrasti [4]): 80%

SMILES: CCOC(=O)C1Oc2ccc3c(c2O1)B(O)OC3 (stereo not drawn) [Compound 3, ethyl 1-hydroxy-3H-[1,3]dioxolo[4,5-g][2,1]benzoxaborole-7-carboxylate]
- herbicidal activity against Amaranthus retroflexus (Amaranthus retroflexus [1]; application rate 2 kg/ha): 100%
- herbicidal activity against Setaria viridis (Setaria viridis; application rate 2 kg/ha): 100%
